PubChem BioAssay AID1769 (NMMLSC, 2009)

Molecular target: glutathione S-transferase (Schistosoma japonicum GST tag binding GSH beads)
Assay: GST–glutathione bead interaction interference profiling – biochemical, multiplex beads, flow cytometry, profiling panel (AID 1769);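 also: target is a GST and green fluorescent protein fusion captured on glutathione beads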
Settings: flow cytometry fluorescence

Row | Compound | EC50 [µM]
1 | O=C(O)CC/C(=C\c1ccc(N2CCCC2)c([N+](=O)[O-])c1)c1nc2ccccc2s1 | 37
2 | COc1ccc(N=C2S/C(=C\c3ccc(N4CCOCC4)o3)C(=O)N2CCc2c[nH]c3ccccc23)cc1 | 0.0269
3 | O=c1c2ccccc2nc2c3ccccc3c(NCc3cccnc3)nn12 | 0.348
4 | O=C(Cc1ccc(Nc2nc(=S)[nH]c3ccccc23)cc1)NC1CCCCC1 | 6.65
5 | COc1cc(N2CCCC2)c(OC)cc1/C=C(/C#N)c1ccc(Br)cc1 | 0.0745
6 | Cn1c(SCCOc2ccccc2F)nc2ccccc2c1=O | 4.72
7 | COc1cccc(C2CC(c3ccccc3)Nc3ncnn32)c1 (centres undefined) | 6.49
8 | O=c1c2ccccc2nc2c3ccccc3c(NCCO)nn12 | 3.55
9 | Cc1cc(N/N=C/c2ccc(O)cc2O)nc(-n2nc(C)cc2C)n1 | 0.831
10 | CC(=O)N1C(=O)/C(=C2\SC(=S)N(NC(=O)c3ccc(O)cc3)C2=O)c2ccccc21 | 4.13
11 | CN(/N=C/C=C/c1ccccc1)C1=NS(=O)(=O)c2ccccc21 | 6.02
12 | Cc1cc(=O)[nH]c2c(N=Nc3ccc(O)cc3)c(N)nn12 | 1.4
13 | Oc1ccc(C2=Nn3c(nnc3-c3ccco3)SC2)cc1O | 1.29
14 | O=c1c2ccccc2nc2ccc(NCc3ccco3)nn12 | 50.8
15 | CN(/N=C/c1ccco1)C1=NS(=O)(=O)c2ccccc21 | 2.54
16 | CCC(C)N1C(=O)/C(=C/c2c(NCCCOC(C)C)nc3c(C)cccn3c2=O)SC1=S (centres undefined) | 0.201
17 | O=[N+]([O-])c1cc(-c2ncccn2)c([N+](=O)[O-])s1 | 7.57
18 | O=[N+]([O-])c1ccc2c(c1)c(-c1ccccc1)nc1nncn12 | 3.04
19 | C/C(=N\Nc1ccc(S(N)(=O)=O)cc1[N+](=O)[O-])c1ccc2c(c1)OCO2 | 1.4
20 | Oc1c(CN2CCOCC2)ccc2ccccc12 | 24.5
21 | NS(=O)(=O)c1ccc(CCN2C(=O)/C(=C\c3ccc(Cl)cc3)SC2=S)cc1 | 6.03
22 | O=C(NCc1cccs1)c1cccn2c(=O)c3sccc3nc12 | 0.664
23 | COc1cc2nc(=S)n(CCCN3CCOCC3)c(N)c2cc1OC | 11

Row | Compound | EC50 [µM]
24 | Cn1c(O)c(C2=c3ccccc3=NC2=O)[nH]c1=S | 13.4
25 | CN(C)S(=O)(=O)c1ccc(C(=O)NNc2nc(-c3ccccc3)c3cc(Br)ccc3n2)cc1 | 4.9
26 | CCOc1ccc2c(c1)c(N=NC(=N)N)c(O)n2C | 25.6
27 | COc1cccc2cc(-c3ccnc(=S)[nH]3)oc12 | 28.8
28 | O=c1[nH]c(=O)c2nnc(N/N=C\c3ccc(O)cc3)nc2[nH]1 | 3.79
29 | O=C1/C(=C\c2ccc(-c3ccccc3Cl)o2)SC(=S)N1CC1CCCO1 (centres undefined) | 17.3
30 | COc1cc(/C=N/Nc2ncnc3sc4c(c23)CCC4)ccc1O | 14.4
31 | O=C(/C=C/c1ccc(N2CCC(c3ccccc3)=N2)cc1)c1ccccc1 | 0.34
32 | Fc1cccc(Nc2ncnc3[nH]ncc23)c1 | 45.1
33 | O=c1c2ccc([N+](=O)[O-])cc2ncn1Cc1ccccc1C(F)(F)F | 7.62
34 | COc1cc(N2CCCC2)c(OC)cc1/C=C(/C#N)c1cccc(F)c1 | 1.71
35 | COc1ccc(NC(=O)c2cc3nc(-c4ccccc4)cc(C)n3n2)cc1OC | 2.85
36 | COc1ccc(OC)c(S(=O)(=O)Nc2ccc(O)c(Sc3ncn[nH]3)c2)c1 | 4.38
37 | N=c1oc2ccc3ccccc3c2cc1-c1nc(-c2ccccc2)cs1 | 1.4
38 | Cc1ccc(O)c(N=Cc2cc(Cc3ccccc3)cc([N+](=O)[O-])c2O)c1 | 8.29
39 | CCOc1cc(/C=C2\SC(=O)N=C2N)ccc1O | 2.47
40 | COc1cc(NC(=O)c2cccs2)c(OC)cc1NC(=O)CCC(=O)Nc1ccc2ncccc2c1 | 0.481
41 | COc1cccc2c(SCC(=O)N/N=C/c3ccc(O)cc3O)cc(C)nc12 | 45.4
42 | COc1ccc(-c2cc(-c3ccc(O)cc3)nc(N)c2C#N)cc1OC | 11.5
43 | NC(=S)N=Nc1c(O)[nH]c2cc(F)c(F)cc12 | 15.6
44 | COc1ccc2nc(C)cc(SCC(=O)N/N=C/c3ccc(O)c(O)c3)c2c1 | 15.7
45 | CCn1cc(C(=O)O)c(=O)c2cc(F)c(N/N=C/c3ccccc3[N+](=O)[O-])cc21 | 2.67
46 | COc1cc2ccccc2cc1C(=O)NC(=S)Nc1cccc(C(=O)O)c1 | 9.3

Row | Compound | EC50 [µM]
47 | O=C(CSc1ccccc1)Nc1ccc(C(=O)Nc2cccc(O)c2)cc1 | 1.9
48 | O=C(N/N=C/c1ccco1)c1ccc(C(=O)N/N=C/c2ccco2)o1 | 19.4
49 | CCCCn1c(O)c(/C=C/C=C/C=Nc2ccccc2)sc1=S | 0.576
50 | CC(=O)Nc1ccc(Nc2ccc3c4c(cc(=O)n3C)-c3ccccc3C(=O)c24)cc1 | 0.151
51 | CCNC(=S)N=Nc1c(O)[nH]c2ccc([N+](=O)[O-])cc12 | 1.93
52 | COc1ccc(OC)c(Nc2nc(-c3sc(N)nc3C)cs2)c1 | 26.9
53 | COc1cc(/C=N/NC(=O)CN(Cc2ccccc2)S(=O)(=O)c2ccc3c(c2)OCCO3)ccc1O | 20.3
54 | O=c1[nH]c(N/N=C/c2ccc(O)cc2)nc2ccccc12 | 7.68
55 | O=C(O)c1cccc(-n2cccc2/C=C2/NC(=O)N(c3ccc(Cl)cc3)C2=O)c1 | 2.25
56 | CCCc1nc2oc3c(=O)[nH]cnc3c2c2c1CCCC2 | 2.05
57 | COCCCNc1nc(=S)[nH]c2cc(OC)c(OC)cc12 | 15.2
58 | COc1cc2[nH]c(=S)nc(Nc3ccc(NC(C)=O)cc3)c2cc1OC | 2.91
59 | CCOc1ccc(CCNc2ccc3nnc(-c4ccccc4)n3n2)cc1OCC | 2.29
60 | CCn1cc(C(=O)O)c(=O)c2cc(F)c(N/N=C/c3ccccc3)cc21 | 3.88
61 | O=C(Oc1c(Br)cc(C(=S)N2CCOCC2)cc1Br)c1ccc(Cl)cc1 | 2.97
62 | O=C(O)c1cc(C(=O)O)cc(-c2ccc(/C=c3/sc4nc5ccccc5n4c3=O)o2)c1 | 11.9
63 | CCOc1cc(/C=N/NC(=O)c2cc(-c3cccnc3)nc3ccccc23)ccc1O | 8.65
64 | COc1ccc(-c2c3c(nc4sc5c(=O)[nH]c(C)nc5c24)CCC3)cc1 | 3.74
65 | N#Cc1c(Nc2ccccc2)c(/C=N/N=C/c2ccccc2)c[nH]c1=O | 4.1
66 | COc1ccc(N/C=C/c2nc(SC)nnc2C)cc1 | 2.76
67 | O=C(CSc1ccc2nnc(-c3ccccn3)n2n1)Nc1nccs1 | 13
68 | Cc1sc2nc3c(SC(C)C(=O)O)cc(C(=O)c4ccccc4O)cn3c(=O)c2c1C (centres undefined) | 92.7
69 | CC(C)c1cc(NCc2ccccn2)n2c(nc3ccccc32)c1C#N | 2.82
